Counter-ions that a name gives are not always drawn. Like-named read-outs stand apart in the source and are kept apart here.
How the values were obtained:
[1] = biological target: T1, SARS-CoV-2 PLpro (nsp3 1564–1878) (Severe acute respiratory syndrome coronavirus 2, UniProt P0DTD1); assay: biochemical; design: FRET-quenched peptide (Pro3) cleavage by PLpro, 10 min pre-incubation, slope over 20 min, normalised to no-compound control; details: low concentration screen, read-out: % of control remaining
[2] = biological target: T1, SARS-CoV-2 PLpro (nsp3 1564–1878); assay: biochemical; design: FRET-quenched peptide (Pro3) cleavage by PLpro, 10 min pre-incubation, slope over 20 min, normalised to no-compound control; details: high concentration screen, read-out: % of control remaining

Cc1nc(N=Nc2cc(S(=O)(=O)O)c3cc([N+](=O)[O-])cc(S(=O)(=O)O)c3c2)c(COP(=O)(O)O)c(C=O)c1O [PPNDS tetrasodium]
remaining activity at 1.25 µM ([1]; Well no.=1048): 102% | remaining activity at 3.75 µM ([2]; Well no.=1048): 103%

CCc1cc2c(cc1CC)CC(NC[C@H](O)c1ccc(O)c3[nH]c(=O)ccc13)C2 [Indacaterol (maleate)]
remaining activity at 1.25 µM ([1]; Well no.=8199): 105% | remaining activity at 3.75 µM ([2]; Well no.=8199): 95%

CCOc1ccc(-n2c([C@@H](C)N(Cc3cccnc3)C(=O)Cc3ccc(OC(F)(F)F)cc3)nc3ncccc3c2=O)cc1 [AMG 487]
remaining activity at 1.25 µM ([1]; Well no.=8651): 101% | remaining activity at 3.75 µM ([2]; Well no.=8651): 97.8%

COc1cc(OC)c(/C=C/S(=O)(=O)Cc2ccc(OC)c(NCC(=O)O)c2)c(OC)c1 [Rigosertib (sodium)]
remaining activity at 1.25 µM ([1]; Well no.=6400): 98.5% | remaining activity at 3.75 µM ([2]; Well no.=6400): 97.7%

C=C1CC[C@@H]2[C@](C)(CO)[C@H](O)CC[C@@]2(C)[C@@H]1C/C=C1/C(=O)OC[C@H]1O [Andrographolide]
remaining activity at 1.25 µM ([1]; Well no.=3435): 93.4% | remaining activity at 3.75 µM ([2]; Well no.=3435): 96.9%

O=C(Nc1ncc([N+](=O)[O-])s1)c1ccc([N+](=O)[O-])c(Cl)c1 [SM-7368]
remaining activity at 1.25 µM ([1]; Well no.=5947): 104% | remaining activity at 3.75 µM ([2]; Well no.=5947): 103%

c1ccc2c(c1)CCCC2C1=NCCN1 (stereo not shown) [Tetrahydrozoline (hydrochloride)]
remaining activity at 1.25 µM ([1]; Well no.=8099): 96.6% | remaining activity at 3.75 µM ([2]; Well no.=8099): 91.5%

CC(C)n1c(/C=C/[C@H](O)C[C@H](O)CC(=O)O)c(-c2ccc(F)cc2)c2ccccc21 [Fluvastatin]
remaining activity at 1.25 µM ([1]; Well no.=1902): 97.7% | remaining activity at 3.75 µM ([2]; Well no.=1902): 98.9%

CCNc1ncnc2c1ncn2[C@@H]1O[C@H](CO)[C@@H](O)[C@H]1O [N6-Ethyladenosine]
remaining activity at 1.25 µM ([1]; Well no.=7906): 99.5% | remaining activity at 1.25 µM ([1]; Well no.=8517): 100% | remaining activity at 3.75 µM ([2]; Well no.=7906): 97.7% | remaining activity at 3.75 µM ([2]; Well no.=8517): 95.1%

O=c1n(CCCN2CCN(c3cccc(Cl)c3)CC2)nc2ccccn12 [Trazodone (hydrochloride)]
remaining activity at 1.25 µM ([1]; Well no.=7432): 109% | remaining activity at 3.75 µM ([2]; Well no.=7432): 111%

CCCCCCCCCCCCC/C=C/[C@@H](O)[C@H](CO)NC(=O)CCCCCCCCCCCCCCC [C16 Ceramide]
remaining activity at 1.25 µM ([1]; Well no.=4397): 101% | remaining activity at 3.75 µM ([2]; Well no.=4397): 101%

Cc1nn(C)c2c1C(c1ccc(C(F)(F)F)cc1)C(C#N)=C(N)O2 (stereo not shown) [BQU57]
remaining activity at 1.25 µM ([1]; Well no.=7957): 103% | remaining activity at 3.75 µM ([2]; Well no.=7957): 94.7%

O=P(O)(O)CP(=O)(O)OC[C@H]1O[C@@H](n2cnc3c(NCc4ccccc4)ncnc32)[C@H](O)[C@@H]1O [PSB-12379]
remaining activity at 1.25 µM ([1]; Well no.=8745): 105% | remaining activity at 3.75 µM ([2]; Well no.=8745): 105%

COc1cc2ncnc(Nc3cccc(Br)c3)c2cc1OC [PD153035 HCl]
remaining activity at 1.25 µM ([1]; Well no.=4627): 104% | remaining activity at 3.75 µM ([2]; Well no.=4627): 105%

CS(=O)(=O)CCNCc1nc(-c2ccc3ncnc(Nc4ccc(OCc5cccc(F)c5)c(Cl)c4)c3c2)cs1 [GW 583340 dihydrochloride - N-[3-Chloro-4-[(3-fluorophenyl)methoxy]phenyl]-6-[2-[[[2-(methylsulfonyl)ethyl]amino]methyl]-4-thiazolyl]-4-quinazolinamine dihydrochloride]
remaining activity at 1.25 µM ([1]; Well no.=2490): 94.4% | remaining activity at 3.75 µM ([2]; Well no.=2490): 94.9%

C=C1[C@@H](C)[C@H]2[C@H](Cc3ccccc3)NC(=O)[C@]23OC(=O)/C=C/[C@H](O)CCC[C@@H](C)C/C=C/[C@H]3[C@@H]1O [Cytochalasin B]
remaining activity at 1.25 µM ([1]; Well no.=3189): 98% | remaining activity at 3.75 µM ([2]; Well no.=3189): 98.1%

Cc1ccc([N+](=O)[O-])cc1S(=O)(=O)N(C)/N=C/c1cnc2ccc(Br)cn12 [PIK 75]
remaining activity at 1.25 µM ([1]; Well no.=2993): 96.4% | remaining activity at 3.75 µM ([2]; Well no.=2993): 96.1%

CC(=O)O[C@]1(C(C)=O)CC[C@H]2[C@@H]3C=C(C)C4=CC(=O)CC[C@]4(C)[C@H]3CC[C@@]21C [Megestrol Acetate]
remaining activity at 1.25 µM ([1]; Well no.=2236): 95% | remaining activity at 3.75 µM ([2]; Well no.=2236): 93.2%

COc1nc(OCc2cccc(-c3ccccc3)c2C)ccc1CNCCNC(C)=O [BMS-202]
remaining activity at 1.25 µM ([1]; Well no.=8469): 100% | remaining activity at 1.25 µM ([1]; Well no.=8694): 96.5% | remaining activity at 3.75 µM ([2]; Well no.=8469): 95.5% | remaining activity at 3.75 µM ([2]; Well no.=8694): 93.7%

COC(=O)[C@H](CC(C)C)NC(=O)c1ccc(NC[C@@H](N)CS)cc1-c1cccc2ccccc12 [GGTI298]
remaining activity at 1.25 µM ([1]; Well no.=8076): 106% | remaining activity at 3.75 µM ([2]; Well no.=8076): 101%

Nc1nc2ccccc2c2ccccc12 [6-phenanthridinamine]
remaining activity at 1.25 µM ([1]; Well no.=5389): 106% | remaining activity at 3.75 µM ([2]; Well no.=5389): 102%

CC1Cc2cc3c(cc2C(c2ccc(N)cc2)=NN1)OCO3 (stereo not shown) [GYKI 52895]
remaining activity at 1.25 µM ([1]; Well no.=414): 95.2% | remaining activity at 3.75 µM ([2]; Well no.=414): 95.8%

CCCCC[C@H](O)/C=C/C1=C(CCCCCCC(=O)O)C(=O)CC1 [Prostaglandin B1]
remaining activity at 1.25 µM ([1]; Well no.=3088): 99.1% | remaining activity at 1.25 µM ([1]; Well no.=4469): 102% | remaining activity at 3.75 µM ([2]; Well no.=3088): 100% | remaining activity at 3.75 µM ([2]; Well no.=4469): 102%

CCOc1ccccc1-n1c(C(C)N2CCN(C(=O)COc3ccc(Cl)cc3)CC2)nc2ccccc2c1=O (stereo not shown) [Erastin]
remaining activity at 1.25 µM ([1]; Well no.=6732): 98.2% | remaining activity at 3.75 µM ([2]; Well no.=6732): 96.5%

CC1(COc2ccc(CC3SC(=O)NC3=O)cc2)CCCCC1 (stereo not shown) [Ciglitizone]
remaining activity at 1.25 µM ([1]; Well no.=222): 99% | remaining activity at 3.75 µM ([2]; Well no.=222): 97.7%

CCCCCCCCCCCCCCCC(=O)NCC(COP(=O)([O-])OCC[N+](C)(C)C)OC (racemic) [rac-2-Methoxy-3-hexadecanamido-1-propylphosphocholine]
remaining activity at 1.25 µM ([1]; Well no.=1078): 97.5% | remaining activity at 3.75 µM ([2]; Well no.=1078): 96.5%

NS(=O)(=O)c1cc2c(cc1Cl)NCNS2(=O)=O [Hydrochlorothiazide]
remaining activity at 1.25 µM ([1]; Well no.=658): 100% | remaining activity at 3.75 µM ([2]; Well no.=658): 98.6%

CCCCCCCC/C=C\CCCCCCCCCCCCCC(=O)O [15(Z)-Tetracosenoic acid]
remaining activity at 1.25 µM ([1]; Well no.=4504): 93.9% | remaining activity at 3.75 µM ([2]; Well no.=4504): 98.5%

CO[C@@H](C[C@@H]1CC[C@@H](C)[C@](O)(C(=O)C(=O)N2CCCC[C@H]2C(=O)O)O1)/C(C)=C/C=C/C=C/[C@@H](C)C[C@@H](C)C(=O)[C@H](OC)[C@H](O)/C(C)=C/[C@@H](C)C(=O)/C=C/[C@H](C)C[C@@H]1CC[C@@H](O)[C@H](OC)C1 [Seco Rapamycin (sodium salt)]
remaining activity at 1.25 µM ([1]; Well no.=7642): 97.4% | remaining activity at 3.75 µM ([2]; Well no.=7642): 95.9%

Cc1c(CC(=O)O)c2cccnc2n1Cc1ccc(S(C)(=O)=O)cc1C(F)(F)F [Fevipiprant]
remaining activity at 1.25 µM ([1]; Well no.=7767): 106% | remaining activity at 3.75 µM ([2]; Well no.=7767): 106%

CCCCCN(C)CCC(O)(P(=O)(O)O)P(=O)(O)O [Ibandronate sodium]
remaining activity at 1.25 µM ([1]; Well no.=5363): 90.7% | remaining activity at 3.75 µM ([2]; Well no.=5363): 89.7%

COc1ccc2c(c1)/C(=C/c1cnc[nH]1)C(=O)N2 [SU9516]
remaining activity at 1.25 µM ([1]; Well no.=2660): 96.5% | remaining activity at 3.75 µM ([2]; Well no.=2660): 94.4%

— publication PMC8286840, “Identifying SARS-CoV-2 antiviral compounds by screening for small molecule inhibitors of Nsp3 papain-like protease” (Biochemical Journal, 2021)
